Source: publication PMC5379148, “A phase I study of intravenous and oral rucaparib in combination with chemotherapy in patients with advanced solid tumours” (British Journal of Cancer, 2017)

Assay: Plasma pharmacokinetics of rucaparib (LC-MS/MS, noncompartmental)
Conditions: for Vd / AUC(0-t) / AUC(0-inf) / Cmax / Tmax / bioavailability / Tmax at 14 days: human, plasma; for AUC(0-inf): AUCinf; for Tmax / Tmax at 14 days: median (minimum, maximum)
[1] = iv, 12 mg, single i.v. dose 12 mg, day –10, geometric mean (CV%)
[2] = iv, 18 mg, single i.v. dose 18 mg, day –10, geometric mean (CV%)
[3] = iv, 24 mg, single i.v. dose 24 mg, day –10, geometric mean (CV%)
[4] = iv, 27 mg, single i.v. dose 27 mg, day –10, geometric mean (CV%)
[5] = iv, 40 mg, single i.v. dose 40 mg, day –10, geometric mean (CV%)
[6] = po, 12 mg, single oral dose 12 mg, day –5, geometric mean (CV%)
[7] = po, 36 mg, single oral dose 36 mg, day –5, geometric mean (CV%)
[8] = po, 48 mg, single oral dose 48 mg, day –5, geometric mean (CV%)
[9] = po, 72 mg, single oral dose 72 mg, day –5, geometric mean (CV%)
[10] = po, 80 mg, single oral dose 80 mg, day 1, geometric mean (CV%)
[11] = po, 80 mg, single oral dose 80 mg, day –5, geometric mean (CV%)
[12] = po, 120 mg, single oral dose 120 mg, day 1, geometric mean (CV%)
[13] = po, 120 mg, single oral dose 120 mg, day –5, geometric mean (CV%)

Method: On cycle 1 days −10, −5, 1, and 14, plasma samples were obtained from all patients before rucaparib dosing and at 15 and 30 min, and at 1, 1.5, 2.5, 4, 6, 10, and 24 h after the start of the rucaparib administration (i.v. infusion (day −10) or oral (days −5, 1, and 14)). On cycle 1 days −10 and −5, samples were also obtained 48 h after the start of rucaparib administration. Rucaparib concentration was determined using liquid chromatography with tandem mass spectrometry.
Plasma clearance or apparent plasma clearance and steady-state volume of distribution were calculated for rucaparib. The oral bioavailability of rucaparib was calculated as the ratio of dose-normalised AUC0–t or AUCinf (data permitting) determined using oral rucaparib PK data collected on cycle 1 day −5 to that determined using the i.v. PK data collected on cycle 1 day −10. Pharmacokinetic parameters were summarised with the geometric mean and the coefficient of variation (CV). The ratio of Cmax and AUC0–24 of rucaparib administered in combination with chemotherapies to those of rucaparib alone was calculated and summarised, with mean and CV% to evaluate the effect of chemotherapies on the PK of rucaparib for both the i.v. dose (day −10) and oral dose (day −5).
The oral bioavailability of rucaparib was calculated as the ratio of dose-normalised AUC0-t or AUCinf (data permitting) determined using oral rucaparib PK data collected on cycle 1 day –5 to that determined using the intravenous PK data collected on cycle 1 day –10. The tmax was summarised with medians and ranges. The accumulation ratio after multiple oral rucaparib dosing (once daily) was assessed as the ratio of the AUC0-24 determined using PK collected on cycle 1 day 14 to the AUC0-24 after the cycle 1 day –5 lead-in dose. The ratio of the Cmax on day 14 to the Cmax on day –5 was also calculated. Additionally, the ratio of the AUC0-24 on cycle 1 day 14 to the AUCinf after the cycle 1 day –5 lead-in dose was calculated as an indication for any time-dependent change in rucaparib PK.

CNCc1ccc(-c2[nH]c3cc(F)cc4c3c2CCNC4=O)cc1 [rucaparib]
impact of chemotherapy coadministration on i.v. rucaparib PK (carboplatin+paclitaxel, cisplatin+pemetrexed, or epirubicin+cyclophosphamide): No apparent impact
Vd (iv, 12 mg): 258 L
AUC(0-t) (iv, 12 mg, AUC0-24, single i.v. dose 12 mg, day –10, geometric mean (CV%)): 549 ng·h/mL
AUC(0-inf) [1]: 740 ng·h/mL
Cmax [1]: 324 ng/mL
Tmax (iv, 12 mg, single i.v. dose 12 mg, day –10): 0.5 h
Vd (iv, 18 mg): 234 L
AUC(0-t) (iv, 18 mg, AUC0-24, single i.v. dose 18 mg, day –10, geometric mean (CV%)): 812 ng·h/mL
AUC(0-inf) [2]: 976 ng·h/mL
Cmax [2]: 498 ng/mL
Tmax (iv, 18 mg, single i.v. dose 18 mg, day –10): 0.5 h
Vd (iv, 24 mg): 262 L
AUC(0-t) (iv, 24 mg, AUC0-24, single i.v. dose 24 mg, day –10, geometric mean (CV%)): 1220 ng·h/mL
AUC(0-inf) [3]: 1710 ng·h/mL
Cmax [3]: 627 ng/mL
Tmax (iv, 24 mg, single i.v. dose 24 mg, day –10): 0.5 h
Vd (iv, 27 mg): 191 L
AUC(0-t) (iv, 27 mg, AUC0-24, single i.v. dose 27 mg, day –10, geometric mean (CV%)): 1450 ng·h/mL
AUC(0-inf) [4]: 1900 ng·h/mL
Cmax [4]: 866 ng/mL
Tmax (iv, 27 mg, single i.v. dose 27 mg, day –10): 0.38 h
Vd (iv, 40 mg): 113 L
AUC(0-t) (iv, 40 mg, AUC0-24, single i.v. dose 40 mg, day –10, geometric mean (CV%)): 2530 ng·h/mL
AUC(0-inf) [5]: 2880 ng·h/mL
Cmax [5]: 1610 ng/mL
Tmax (iv, 40 mg, single i.v. dose 40 mg, day –10): 0.5 h
bioavailability (po): 36%
bioavailability (po, 12 mg): 33.4%
AUC(0-t) (po, 12 mg, AUC0-24, single oral dose 12 mg, day –5, geometric mean (CV%)): 155 ng·h/mL
AUC(0-inf) [6]: 225 ng·h/mL
Cmax [6]: 24 ng/mL
Tmax (po, 12 mg, single oral dose 12 mg, day –5): 1 h
bioavailability (po, 36 mg): 45.3%
AUC(0-t) (po, 36 mg, AUC0-24, single oral dose 36 mg, day –5, geometric mean (CV%)): 696 ng·h/mL
AUC(0-inf) [7]: 1100 ng·h/mL
Cmax [7]: 90 ng/mL
Tmax (po, 36 mg, single oral dose 36 mg, day –5): 2 h
bioavailability (po, 48 mg): 33.6%
AUC(0-t) (po, 48 mg, AUC0-24, single oral dose 48 mg, day –5, geometric mean (CV%)): 620 ng·h/mL
AUC(0-inf) [8]: 922 ng·h/mL
Cmax [8]: 80 ng/mL
Tmax (po, 48 mg, single oral dose 48 mg, day –5): 1.25 h
bioavailability (po, 72 mg): 30.1%
AUC(0-t) (po, 72 mg, AUC0-24, single oral dose 72 mg, day –5, geometric mean (CV%)): 893 ng·h/mL
AUC(0-inf) [9]: 1090 ng·h/mL
Cmax [9]: 108 ng/mL
Tmax (po, 72 mg, single oral dose 72 mg, day –5): 2 h
bioavailability (po, 80 mg): 30.7%
AUC(0-t) (po, 80 mg, AUC0-24, oral 80 mg q.d. for 14 days, n = 1): 2210 ng·h/mL
AUC(0-t) (po, 80 mg, AUC0-24, single oral dose 80 mg, day 1, geometric mean (CV%)): 1380 ng·h/mL
AUC(0-t) (po, 80 mg, AUC0-24, single oral dose 80 mg, day –5, geometric mean (CV%)): 1270 ng·h/mL
AUC(0-inf) [10]: 1700 ng·h/mL
AUC(0-inf) [11]: 1920 ng·h/mL
Cmax (po, 80 mg, oral 80 mg q.d. for 14 days, n = 1): 190 ng/mL
Cmax [10]: 99 ng/mL
Cmax [11]: 114 ng/mL
Tmax at 14 days (po, 80 mg, oral 80 mg q.d. for 14 days): 2.5 h
Tmax (po, 80 mg, single oral dose 80 mg, day 1): 4 h
Tmax (po, 80 mg, single oral dose 80 mg, day –5): 2.5 h
bioavailability (po, 120 mg): 41.1%
AUC(0-t) (po, 120 mg, AUC0-24, oral 120 mg q.d. for 14 days, geometric mean (CV%)): 4040 ng·h/mL
AUC(0-t) (po, 120 mg, AUC0-24, single oral dose 120 mg, day 1, geometric mean (CV%)): 3260 ng·h/mL
AUC(0-t) (po, 120 mg, AUC0-24, single oral dose 120 mg, day –5, geometric mean (CV%)): 2920 ng·h/mL
AUC(0-inf) [12]: 3770 ng·h/mL
AUC(0-inf) [13]: 4070 ng·h/mL
Cmax (po, 120 mg, oral 120 mg q.d. for 14 days, geometric mean (CV%)): 375 ng/mL
Cmax [12]: 344 ng/mL
Cmax [13]: 274 ng/mL
Tmax at 14 days (po, 120 mg, oral 120 mg q.d. for 14 days): 2.5 h
Tmax (po, 120 mg, single oral dose 120 mg, day 1): 4 h
Tmax (po, 120 mg, single oral dose 120 mg, day –5): 4 h
AUC(0-t) (po, 180 mg, AUC0-24, oral 180 mg q.d. for 14 days, geometric mean (CV%)): 7660 ng·h/mL
AUC(0-t) (po, 180 mg, AUC0-24, single oral dose 180 mg, day 1, geometric mean (CV%)): 5920 ng·h/mL
AUC(0-t) (po, 180 mg, AUC0-24, single oral dose 180 mg, day –5, geometric mean (CV%)): 5610 ng·h/mL
AUC(0-inf) (po, 180 mg, single oral dose 180 mg, day –5, geometric mean (CV%)): 8410 ng·h/mL
Cmax (po, 180 mg, oral 180 mg q.d. for 14 days, geometric mean (CV%)): 454 ng/mL
